Patent publication US20070060512A1, “Dipeptidyl-peptidase protected protein” (priority 2003, published 2007)
Where no end group is shown, it is not given here.

Columns and labels:
Zucker rats [1] = test: Glucose Tolerance Test in Zucker rats; format: in vivo, rat; details: fasted Zucker rats, subcutaneous injection 30 minutes before glucose 1.5 mg/g body weight; versus untreated animals
Description: In this Example, modified GLP-1/mTf of the present invention is used as a therapeutic agent to treat diabetes. Modified GLP-1/mTf is administered to Zucker rats, a standard animal model for type II diabetes. Zucker rats have abnormally high blood glucose levels. […] Zucker rats are fasted overnight and then treated with H-GLP-1 or H-GLP-1 fused to transferrin (H-GLP-1/mTf). Thirty minutes after subcutaneous injection of H-GLP-1 or H-GLP-1/mTf, the animals are subjected to a Glucose Tolerance Test (GTT). For this test, fasted animals are fed glucose solution (1.5 mg/g body weight), and the blood glucose is measured at appropriate time intervals.

Zucker rats [2] = test: Fasting glucose of Zucker rats without glucose administration; format: in vivo, rat; details: versus untreated animals
From the text: In a further experiment, modified H-GLP-1 or H-GLP-1/mTf is used to normalize the high fasting glucose of the Zucker rats without glucose administration.

recombinant human DPP-IV = biological target: T1, recombinant human DPP-IV (Homo sapiens, UniProt P27487); test: Dipeptidylpeptidase-IV treatment of mTf fusion proteins, cyclic AMP stimulation assay in CHO-GLP1R cells; format: in vitro ADME; details: 2 μM fusion protein, DPP-IV 1 μg/μL, room temperature 2 hours; cAMP in CHO-GLP1R cells
T1 construct: purchased R&D Systems
Description: Control reactions excluding DPP-IV were set-up in parallel for each fusion protein. The digests were incubated at room temperature for 2 hours, at which time the reactions were diluted 20-fold in Krebs-Ringer buffer (Biosource International) supplemented with 1 mM IBMX (Calbiochem).
Tissue culture plates (24-well) were seeded with CHO-GLP1R cells at a density of 1×10^5 cells per/well in RPMI/10% FBS medium one day prior to treatment. The next day the cells appeared uniformly distributed with an approximate confluency of 60-80 percent. One day after seeding the culture plates the cells were washed twice with Krebs-Ringer buffer (KRB) followed by incubation in KRB for 1 hr at 37° C. to lower the intracellular levels of cAMP. This was followed by incubation for 10 minutes in KRB/IBMX to inhibit intracellular enzymes that break down cAMP. Dilutions of each test compound were prepared in KRB/IBMX and triplicate wells of CHO-GLP1R cells were treated with 0.15 ml of test compound per well for exactly 50 minutes at 37° C. The treatment was halted by washing the cultures two times with ice-cold phosphate-buffered saline. […]

[3] = compared to GLP-1; cited from earlier work
[4] = second N-terminal alanine replaced with serine; cited from earlier work

T1 sequence (P27487 whole entry, the tested form may be a part): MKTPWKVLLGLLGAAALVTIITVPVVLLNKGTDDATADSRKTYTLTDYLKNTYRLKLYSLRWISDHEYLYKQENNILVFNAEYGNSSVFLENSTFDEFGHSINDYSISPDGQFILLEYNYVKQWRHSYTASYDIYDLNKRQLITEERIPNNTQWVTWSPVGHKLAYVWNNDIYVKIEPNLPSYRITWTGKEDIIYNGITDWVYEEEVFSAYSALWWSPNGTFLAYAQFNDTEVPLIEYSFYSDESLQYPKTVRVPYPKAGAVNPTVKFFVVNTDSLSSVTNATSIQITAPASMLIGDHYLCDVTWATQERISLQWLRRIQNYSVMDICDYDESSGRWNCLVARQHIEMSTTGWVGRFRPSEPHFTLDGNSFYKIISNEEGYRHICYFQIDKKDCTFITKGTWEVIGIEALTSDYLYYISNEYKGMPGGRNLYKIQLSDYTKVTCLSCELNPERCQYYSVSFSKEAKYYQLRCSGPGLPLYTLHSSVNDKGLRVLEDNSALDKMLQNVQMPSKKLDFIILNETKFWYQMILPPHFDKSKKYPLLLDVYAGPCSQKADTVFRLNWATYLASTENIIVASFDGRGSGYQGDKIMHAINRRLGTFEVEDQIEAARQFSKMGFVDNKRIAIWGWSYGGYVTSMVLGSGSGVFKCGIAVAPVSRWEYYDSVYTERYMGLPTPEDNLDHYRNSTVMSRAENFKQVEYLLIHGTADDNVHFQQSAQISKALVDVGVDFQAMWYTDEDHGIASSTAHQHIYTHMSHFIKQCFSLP

Compound: CC[C@H](C)[C@H](NC(=O)[C@H](Cc1ccccc1)NC(=O)[C@H](CCC(=O)O)NC(=O)[C@H](CCCCN)NC(=O)[C@H](C)NC(=O)[C@H](C)NC(=O)[C@H](CCC(N)=O)NC(=O)CNC(=O)[C@H](CCC(=O)O)NC(=O)[C@H](CC(C)C)NC(=O)[C@H](Cc1ccc(O)cc1)NC(=O)[C@H](CO)NC(=O)[C@H](CO)NC(=O)[C@@H](NC(=O)[C@H](CC(=O)O)NC(=O)[C@H](CO)NC(=O)[C@@H](NC(=O)[C@H](Cc1ccccc1)NC(=O)[C@@H](NC(=O)CNC(=O)[C@H](CCC(=O)O)NC(=O)[C@H](C)NC(=O)[C@H](Cc1c[nH]cn1)NC(=O)[C@@H](N)Cc1c[nH]cn1)[C@@H](C)O)[C@@H](C)O)C(C)C)C(=O)N[C@@H](C)C(=O)N[C@@H](Cc1c[nH]c2ccccc12)C(=O)N[C@@H](CC(C)C)C(=O)N[C@H](C(=O)N[C@@H](CCCCN)C(=O)NCC(=O)N[C@@H](CCCNC(=N)N)C(=O)O)C(C)C [H-GLP-1]
- normalization of blood glucose level in Glucose Tolerance Test (Zucker rats [1]): faster normalization of blood glucose level
- fasting blood glucose level (Zucker rats [2]): significant drop

Compound: H-GLP-1/mTf: H-GLP-1(7-36) fused to modified transferrin (mTf), expressed in Saccharomyces from pREX0368 (HHAEGTFTSDVSSYLEGQAAKEFIAWLVKGR; also: fused to modified transferrin (mTf))
- resistance to DPP-IV (recombinant human DPP-IV): more resistant to DPP-IV than GLP-1/mTf
- normalization of blood glucose level in Glucose Tolerance Test (Zucker rats [1]): faster normalization of blood glucose level
- fasting blood glucose level (Zucker rats [2]): significant drop

Compound: [Ser^8]GLP-1: GLP-1 analog in which the second N-terminal alanine is replaced with serine (Ritzel et al.) (HSEGTFTSDVSSYLEGQAAKEFIAWLVKGRG; Glucagon-like peptide 1(7-37); UniProt P01275 98-128, looked up, variant A8S)
- plasma stability [3]: increased plasma stability as compared to GLP-1
- insulinotropic action [4]: did not impair the insulinotropic action
